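Cultured in 96-well plates, cells were exposed to test compound for 48 hours across five concentrations. Definition used: TGI = concentration required for complete inhibition of growth.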
Experiments:
Test in all cases: NCI-60 cell line screen, 48 h
[1] = system: HCT-116 colon
[2] = system: CAKI-1 renal
[3] = system: 786-0 renal
[4] = system: HOP-92 NSCLC
[5] = system: SNB-75 CNS
[6] = system: ACHN renal
[7] = system: BT-549 breast
[8] = system: HCC-2998 colon
[9] = system: SF-295 CNS
[10] = system: M14 melanoma
[11] = system: UO-31 renal
[12] = system: OVCAR-3 ovarian
[13] = system: LOX IMVI melanoma
[14] = system: OVCAR-8 ovarian
[15] = system: NCI-H460 lung
[16] = system: SK-MEL-28 melanoma
[17] = system: K-562 leukemia

Row | Compound | TGI [1] [µM] | TGI [2] [µM] | TGI [3] [µM] | TGI [4] [µM] | TGI [5] [µM] | TGI [6] [µM] | TGI [7] [µM] | TGI [8] [µM] | TGI [9] [µM] | TGI [10] [µM] | TGI [11] [µM] | TGI [12] [µM] | TGI [13] [µM] | TGI [14] [µM] | TGI [15] [µM] | TGI [16] [µM] | TGI [17] [µM]
1 | O/N=C1\CCc2cc3c(cc21)CCC3 | > 100 | > 100 | > 100 | > 100 | > 100 | > 100 | > 100 | > 100 | > 100 | > 100 | > 100 | > 100 | > 100 | > 100 | > 100 | > 100 | > 100
2 | CCSC(=O)/C=C1\CN(C(=O)OC(C)(C)C)C1C(=O)OC(C)(C)C (stereo unspecified) | 3 | 13.3 | 6.23 | 8.4 | 17.4 | 8.82 | 22.4 | 17.2 | 25 | 3.98 | 10 | 6.13 | 3.3 | 7.85 | 23.2 | 3.67 | 4.63
3 | O=Cc1ccc(-c2cccc([N+](=O)[O-])c2)s1 | > 100 | > 100 | > 100 | > 100 | > 100 | > 100 | > 100 | > 100 | > 100 | > 100 | > 100 | > 100 | > 100 | > 100 | > 100 | > 100 | > 100
4 | CC(=O)N1N=C(c2c(O)ccc3ccccc23)CC1c1ccc(Cl)cc1 (stereo unspecified) | 28.4 | > 100 | > 100 | 39.5 | > 100 | > 100 | 51.1 | 34 | 54.2 | 33.5 | 93.4 | 32.1 |  | > 100 | 48.1 | 74 | 43.3
5 | CN1CCN(CCCCN2c3ccccc3Sc3ccc(N=[N+]=[N-])cc32)CC1 | 13.7 | 22.1 | 22.6 | 12.3 | 16.2 | 22.1 | 26.9 | 18.3 | 27.9 | 3.83 | 21.8 | 22.6 | 7.59 | 29.8 | 17.4 | 3.73 | 4.07
6 | COc1cc(C2(O)c3ccccc3C3=NCCN32)cc(OC)c1OC (stereo unspecified) | > 100 | > 100 | > 100 | > 100 | > 100 | > 100 | > 100 | > 100 | > 100 |  | > 100 | > 100 | > 100 |  | > 100 | > 100 | > 100
7 | Cc1ccc(S(=O)(=O)NC2=NS(=O)(=O)c3cc(C)c(Cl)cc3S2)cc1 | > 100 | > 100 | > 100 | > 100 | > 100 | > 100 | > 100 | > 100 | > 100 | > 100 | > 100 | > 100 | > 100 | > 100 | > 100 | > 100 | > 100
8 | CCN1C[C@]2(C)CC[C@H](OCc3ccccc3)C34C5C[C@@H]6CC[C@](O)(C(C[C@@H]32)C14)C5[C@H]6OCc1ccccc1 (stereo partly specified) | > 100 |  | > 100 | > 100 | > 100 | > 100 | > 100 | > 100 | > 100 | > 100 | > 100 | > 100 | > 100 | > 100 | > 100 | > 100 | > 100
9 | CCN(CC)CCC(=O)c1ccc(Oc2ccccc2)cc1 | 36.1 | 30.7 | 29.3 | 30.1 | 52 | 29.3 | 33.5 | 35.6 | > 100 | > 100 |  | 45.3 | 31.3 | > 100 |  | 32.5 | > 100
10 | O=C(Cc1ccccc1)NNc1nc(NNC(=O)c2ccncc2)nc(Nc2ccc(Cl)cc2)n1 |  | > 10 | > 10 | > 10 | > 10 |  | > 10 | > 10 |  | > 10 | > 10 |  | > 10 | > 10 |  | > 10 | > 10
11 | N#C/C(=C\c1ccc(Br)cc1)c1nc(-c2cc3ccccc3oc2=O)cs1 | > 50 | > 50 | > 50 | 36.6 | 30.6 | 26.1 | 14.5 | > 50 | > 50 | > 50 | > 50 |  | > 50 | > 50 | > 50 | > 50 | > 50
12 | CN(C)CCNC(=O)c1cc(-c2nccn2C)nc2ccccc12 | > 100 | > 100 | > 100 | > 100 | > 100 | > 100 | > 100 | > 100 |  | > 100 | > 100 |  | > 100 | > 100 | > 100 |  | > 100
13 | C/C(=N/NC(=S)NCCc1ccccn1)c1cnccn1 | > 100 | > 100 | 57.2 | > 100 | > 100 | > 100 | > 100 | > 100 | 63.8 | > 100 | 90.2 | > 100 | 40.1 |  | > 100 | > 100 | 
14 | O=C(NCC(C(=O)OCc1ccccc1)C(=O)OCc1ccccc1)OCc1ccccc1 |  | > 100 | > 100 | > 100 | > 100 | > 100 | > 100 | > 100 | > 100 | > 100 | > 100 | > 100 |  | > 100 | > 100 | > 100 | > 100
15 | COc1cc(/C=C2\CC3C4CC[C@H]5C[C@@H](O)CC[C@]5(C)C4CC[C@]3(C)C2=O)cc(OC)c1OC (stereo partly specified) | 43.6 | 44.9 | > 100 | > 100 | 79.7 | 45.8 | > 100 | 34.9 | 21.5 | 61 | 31.7 |  | 32.6 | > 100 | 38.9 | > 100 | > 100
16 | CCCCc1ccc(Nc2nc(N)c3ncn(COCCO)c3n2)cc1 | 62.2 | > 100 | 65.4 | 45.1 | 80.4 | 65.6 | 59.8 | 48.9 | 41.2 | 45.3 | > 100 | 40.3 | 37.4 | 92.6 |  |  | > 100
17 | COc1ccc2c(c1)N=C1CSC(c3c(Cl)cccc3[N+](=O)[O-])N1C2 (stereo unspecified) | > 100 | > 100 | > 100 | > 100 | 98.5 | > 100 | 62.9 | 47.7 | > 100 | > 100 | > 100 |  | > 100 | > 100 | 62.9 | > 100 | > 100
18 | O=C1c2ccccc2-c2c1c(-c1ccccc1)c1n2C2(C(=O)c3ccccc3C2=O)C2C(=O)N(c3ccccc3)C(=O)C12 (stereo unspecified) | 37.8 | > 100 | 68.9 | 73.7 | 79.2 | > 100 | 45.2 |  | > 100 | > 100 | 79.3 | 51.1 | 32.8 | > 100 | 36.9 | > 100 | 
19 | N/C(COc1ccc(Cl)cc1)=N\NC(=O)c1ccncc1 | > 100 | > 100 | > 100 | > 100 | 85.2 | > 100 | > 100 | > 100 | > 100 | > 100 |  | > 100 | > 100 | > 100 | > 100 | > 100 | > 100
20 | O=C(NCCN1CCCC1)c1cn2c(ccc3sc4ccccc4c(=O)c32)n1 | 8.57 | 24.2 | 2.78 | 30.1 | 34.1 | 21.2 | 35.6 | 18.6 | 27.1 | 29.2 | 26.4 | 29.1 | 3.4 | 9.82 | 18.6 | 33.8 | 
21 | Nc1cccc(C#Cc2cccc(C#Cc3cccc(N)n3)n2)n1 | > 100 | > 100 | > 100 | > 100 | > 100 | > 100 | > 100 | > 100 | > 100 | > 100 | > 100 | > 100 | > 100 | > 100 | > 100 |  | > 100
22 | COc1ccc([C@H](NC(=O)c2ccccc2)[C@@H](O)C(=O)O[C@H]2C[C@@]3(O)C(OC(=O)c4ccccc4)C4[C@](C)(C(=O)[C@H](OC(C)=O)C(=C2C)C3(C)C)[C@@H](O)C[C@H]2OC[C@@]42OC(C)=O)cc1 (stereo partly specified) |  | > 10 | > 10 | > 10 | 0.0589 | > 10 | > 10 | 0.091 | 2.92 | > 10 |  |  | > 10 | > 10 | > 10 | > 10 | > 10
23 | Cc1csc2nc3[nH]ncc3c(=O)n12 | > 100 | > 100 | > 100 |  | > 100 | > 100 | > 100 | > 100 | > 100 | > 100 | > 100 | > 100 | > 100 | > 100 | > 100 | > 100 | > 100
24 | O=C1NC(=NC2CCCCC2)C2(CCN(CCCC3(c4ccc(F)cc4)OCCO3)CC2)N1c1ccccc1 | 24.7 | 50.3 | 30.2 |  | 29.8 | 28.4 | 18.5 |  | 35.1 | 41.5 | 25.9 | 25.6 | 39 | 64.9 |  | 35.6 | 
25 | COc1ccc2nc3ccc(OC)cc3c(SCC3CO3)c2c1 (stereo unspecified) | 22.7 | 19.1 | 23.7 |  | > 100 | 21.7 | 30.4 | 29.7 | > 100 | 29 | 24.8 | 28.5 | 33.4 | 25.7 | 31 | 33.5 | 54.1
26 | Cc1nn(C(=O)Cc2ccccc2)c2c1C(c1ccccc1[N+](=O)[O-])SC(N)=N2 (stereo unspecified) | > 100 | > 100 | > 100 |  | > 100 | > 100 | > 100 | > 100 | > 100 | > 100 | > 100 |  | > 100 | > 100 | > 100 | > 100 | > 100
27 | OC(C/C(=N\N=C(/CC(O)(C(F)(F)F)C(F)(F)F)c1ccccc1)c1ccccc1)(C(F)(F)F)C(F)(F)F | > 10 | > 10 | > 10 | > 10 | > 10 | > 10 | > 10 | > 10 | > 10 | > 10 |  | > 10 | > 10 | > 10 | > 10 | > 10 | > 10
28 | COc1ccc(/C(C)=N/NC(=O)c2ccncc2)cc1OC |  | > 10 | > 10 | > 10 | > 10 |  | > 10 | > 10 |  | > 10 | > 10 |  | > 10 |  | > 10 |  | > 10
29 | CC(=O)OC[C@@H](OC(C)=O)[C@@H](OC(C)=O)[C@H]1OC[C@@H]2C[C@H]([C@H]1OC(C)=O)N(Cc1ccccc1)O2 | > 100 | > 100 | > 100 | > 100 | > 100 | > 100 | > 100 | > 100 | > 100 | > 100 | > 100 | > 100 | > 100 |  | > 100 | > 100 | > 100

Reference: PubChem BioAssay (NCI)
